Data taken from patent US5618785A, “Peptide inhibitors of selectin binding” (Centocor, Inc., priority 1995, dated 1997).
Residues, ends and D or L forms follow the SMILES beside them.

Test system: P-selectin
Assay: Inhibition of binding of human neutrophils to P-selectin (neutrophil adhesion to purified P-selectin immobilized on plastic wells)
Assay type: cell-based
Conditions: P-selectin isolated from human platelets, plated at 5 micrograms/mL, myeloperoxidase readout, peptides tested 1.0 mM to 0.001 mM
Excerpt: Peptides can be screened for their ability to inhibit adhesion to cells, for example, neutrophil adhesion to purified P-selectin immobilized on plastic wells, using the assay described by Geng, et al., Nature 343, 757-760 (1990).
Human neutrophils are isolated from heparinized whole blood by density gradient centrifugation on Mono-Poly resolving media, Flow Laboratories. Neutrophil suspensions are greater than 98% pure and greater than 95% viable by trypan blue exclusion. For adhesion assays, neutrophils are suspended at a concentration of 2×10^6 cells/mL in Hanks' balanced salt solution containing 1.26 mM Ca^2+ and 0.81 mM Mg^2+ (HBSS, Gibco) with 0.05 mg/mL human serum albumin (HBSS/HSA). Adhesion assays are conducted in triplicate in 96-well microtiter plates, Corning, incubated at 4° C. overnight with 50 microliters of various protein solutions.
P-selectin is isolated from human platelet lysates by immunoaffinity chromatography on antibody S12-Sepharose™ and ion-exchange chromatography on a Mono-Q™ column (FLPC, Pharmacia Fine Chemicals), as follows.
Outdated human platelet packs (100 units) obtained from a blood bank and stored at 4° C. are pooled, adjusted to 5 mM EDTA at pH 7.5, centrifuged at 4,000 rpm for 30 minutes in 1 liter bottles, then washed three times with 1 liter of 0.1M NaCl, 20 mM Tris pH 7.5 (TBS), 5 mM EDTA, 5 mM benzamidine.
The pellets are then resuspended in a minimum amount of wash buffer and made 1 mM in DIFP, then frozen in 50 mL screwtop tubes at -80° C. The frozen platelets are thawed and resuspended in 50 mL TBS, 5 mM benzamidine, 5 mM EDTA pH 7.5, […]. The suspension is frozen and thawed two times in a dry ice-acetone bath using a 600 mL lyophilizing flask, then homogenized in a glass/teflon mortar and pestle and made 1 mM in DIFP. The NaCl concentration is adjusted to 0.5M with a stock solution of 4M NaCl. After stirring the suspension at 4° C., it is centrifuged in polycarbonate tubes at 33,000 rpm for 60 minutes at 4° C. The supernatant (0.5M NaCl wash) is removed and saved; this supernatant contains the soluble form of P-selectin. Care is taken not to remove the top part of the pellet with the supernatant. The pellets are then homogenized in extraction buffer (TBS, 5 mM benzamidine, 5 mM EDTA, pH 7.5, 100 μM leupeptin, 2% Triton X-100). After centrifugation at 19,500 rpm for 25 minutes at 4° C., the supernatant is removed. The extraction procedure is repeated with the pellet and the supernatant is combined with the first supernatant. The combined extracts, which contain the membrane form of P-selectin, are adjusted to 0.5M NaCl.
The soluble fraction (0.5M NaCl wash) and the membrane extract (also adjusted to 0.5M NaCl) are absorbed with separate pools of the monoclonal antibody S12 (directed to P-selectin) previously coupled to Affigel (Biorad) at 5 mg/mL for 2 hours at 4° C. After letting the resins settle, the supernatants are removed. The S12 Affigel containing bound GMP-140 is then loaded into a column and washed overnight at 4° C. with 400 mL of 0.5M NaCl, 20 mM Tris pH 7.5, 0.01% Lubrol PX.
Bound P-selectin is eluted from the S12 Affigel with 100 mL of 80% ethylene glycol, 1 mM MES pH 6.0, 0.01% Lubrol PX. Peak fractions with absorbance at 280 nm are pooled. Eluates are dialyzed against TBS with 0.05% Lubrol, then applied to a Mono Q column (FPLC from Pharmacia). The concentrated protein is step eluted with 2M NaCl, 20 mM Tris pH 7.5 (plus 0.05% Lubrol PX for the membrane fraction). Peak fractions are dialyzed into TBS pH 7.5 (plus 0.05% Lubrol PX for the membrane fraction).
P-selectin is plated at 5 micrograms/mL and the control proteins: human serum albumin (Alb), platelet glycoprotein IIb/IIIa (IIb), von Willebrand factor (vWF), fibrinogen (FIB), thrombomodulin (TM), gelatin (GEL) or human serum (HS), are added at 50 micrograms/mL. […]

Row | IC50 [µM] | Structure (SMILES)
1 | 149 | CC[C@H](C)[C@H](NC(=O)[C@H](Cc1ccccc1)NC(=O)[C@@H](NC(=O)[C@H](CC(C)C)NC(=O)[C@H](CCCCN)NC(=O)[C@@H](NC(=O)[C@H](Cc1ccc(O)cc1)NC(C)=O)[C@@H](C)O)C(C)C)C(=O)N[C@@H](CCC(N)=O)C(N)=O [Ac--YTKLVFIQ--NH2, Acetyl-tyrosyl-threonyl-lysyl-leucyl-valyl-phenylalanyl-isoleucyl-glutamine-amide] (Ac-YTKLVFIQ-NH2)
2 | 114 | CC[C@H](C)[C@H](NC(=O)[C@H](C)NC(=O)[C@@H](NC(=O)[C@H](Cc1ccccc1)NC(=O)[C@H](CCSC)NC(=O)[C@@H](NC(=O)[C@@H](N)Cc1ccc(O)cc1)[C@@H](C)O)C(C)C)C(=O)N[C@@H](CCC(N)=O)C(N)=O [YTMFVAIQ--NH2, Tyrosyl-threonyl-methionyl-phenylalanyl-valyl-alanyl-isoleucyl-glutamine-amide] (H-YTMFVAIQ-NH2)
3 | 64 | CC[C@H](C)[C@H](NC(=O)[C@H](C)NC(=O)[C@@H](NC(=O)[C@H](Cc1ccc(O)cc1)NC(=O)[C@H](CCCCN)NC(=O)[C@@H](NC(=O)[C@@H](N)Cc1ccc(O)cc1)[C@@H](C)O)C(C)C)C(=O)N[C@@H](CCC(N)=O)C(N)=O [YTKYVAIQ--NH2, Tyrosyl-threonyl-lysyl-tyrosyl-valyl-alanyl-isoleucyl-glutamine-amide] (H-YTKYVAIQ-NH2)
4 | 270 | CC[C@@H](C)[C@@H](NC(=O)[C@@H](Cc1ccccc1)NC(=O)[C@H](NC(=O)[C@@H](CC(C)C)NC(=O)[C@@H](Cc1c[nH]cn1)NC(=O)CNC(=O)[C@H](N)CCCNC(=N)N)C(C)C)C(=O)N[C@H](CCC(N)=O)C(N)=O [rGhlvfiq--NH2, D-arginyl-glycyl-D-histidyl-D-leucyl-D-valyl-D-phenylalanyl-D-isoleucyl-D-glutamine-amide] (HELM PEPTIDE1{[dR].G.[dH].[dL].[dV].[dF].[dI].[dQ].[am]}$$$$V2.0)
5 | 26 | CC[C@H](C)[C@H](NC(=O)[C@@H](CCc1ccccc1)NC(=O)[C@@H](NC(=O)[C@H](CC(C)C)NC(=O)[C@H](CCCCN)NC(=O)[C@@H](NC(=O)[C@H](Cc1ccc(O)cc1)NC(C)=O)[C@@H](C)O)C(C)C)C(=O)N[C@@H](CCC(N)=O)C(N)=O [Ac--YTKLV--(D-homo-F)--IQ--NH2, Acetyl-tyrosyl-threonyl-lysyl-leucyl-valyl-(D-homo-phenylalanyl)-isoleucyl- glutamine-amide] (HELM PEPTIDE1{[ac].Y.T.K.L.V.[O=C([C@@H](CCc1ccccc1)N[*:1])[*:2]].I.Q.[am]}$$$$V2.0)
6 | 93 | CSCC[C@H](NC(=O)[C@@H](NC(=O)[C@@H](N)Cc1ccc(O)cc1)[C@@H](C)O)C(=O)N[C@@H](CC(C)C)C(=O)N[C@H](C(=O)N[C@@H](C)C(=O)N[C@@H](Cc1ccccc1)C(=O)N[C@@H](CCC(N)=O)C(N)=O)C(C)C [YTMLVAFQ--NH2, Tyrosyl-threonyl-methionyl-leucyl-valyl-alanyl-phenylalanyl-glutamine-amide] (H-YTMLVAFQ-NH2)
7 | 81 | CC[C@H](C)[C@H](NC(=O)[C@H](Cc1c[nH]cn1)NC(=O)[C@@H](NC(=O)[C@H](CC(C)C)NC(=O)[C@H](CCCCN)NC(=O)[C@@H](NC(=O)[C@H](Cc1ccc(O)cc1)NC(C)=O)[C@@H](C)O)C(C)C)C(=O)N[C@@H](CCC(N)=O)C(N)=O [Ac--YTKLVHIQ--NH2, Acetyl-tyrosyl-threonyl-lysyl-leucyl-valyl-histidyl-isoleucyl-glutamine-amide] (Ac-YTKLVHIQ-NH2)
8 | 22 | CC[C@H](C)[C@H](NC(=O)[C@H](Cc1ccccc1)NC(=O)[C@@H](NC(=O)[C@H](CC(C)C)NC(=O)[C@H](CCCCN)NC(=O)[C@@H](NC(=O)[C@@H](N)Cc1ccc(O)cc1)[C@@H](C)O)C(C)C)C(=O)N[C@@H](CCC(N)=O)C(N)=O [YTKLVFIQ--NH2, Tyrosyl-threonyl-lysyl-leucyl-valyl-phenylalanyl-isoleucyl-glutamine-amide] (H-YTKLVFIQ-NH2)
9 | 428 | CC[C@H](C)[C@H](NC(=O)[C@H](Cc1ccc(O)cc1)NC(=O)[C@@H](NC(=O)[C@H](CC(C)C)NC(=O)[C@H](Cc1c[nH]cn1)NC(=O)CNC(=O)[C@H](CCCNC(=N)N)NC(C)=O)C(C)C)C(=O)N[C@@H](CCC(N)=O)C(N)=O [Ac--RGHLVYIQ--NH2, Acetyl-arginyl-glycyl-histidyl-leucyl-valyl-tyrosyl-isoleucyl-glutamine-amide] (Ac-RGHLVYIQ-NH2)
10 | 21 | CC[C@H](C)[C@H](NC(=O)[C@H](C)NC(=O)[C@@H](NC(=O)[C@H](Cc1ccccc1)NC(=O)[C@H](CCCCN)NC(=O)[C@@H](NC(=O)[C@@H](N)Cc1ccc(O)cc1)[C@@H](C)O)C(C)C)C(=O)N[C@@H](CCC(N)=O)C(N)=O [YTKFVAIQ--NH2, Tyrosyl-threonyl-lysyl-phenylalanyl-valyl-alanyl-isoleucyl-glutamine-amide] (H-YTKFVAIQ-NH2)
11 | 99 | CC(=O)N[C@@H](Cc1ccc(O)cc1)C(=O)N[C@H](C(=O)N[C@@H](CCCCN)C(=O)N[C@@H](CC(C)C)C(=O)N[C@H](C(=O)N[C@@H](Cc1ccccc1)C(=O)N[C@@H](CCC(N)=O)C(=O)N[C@@H](CCC(N)=O)C(N)=O)C(C)C)[C@@H](C)O [Ac--YTKLVFEQ--NH2, Acetyl-tyrosyl-threonyl-lysyl-leucyl-valyl-phenylalanyl-glutaminyl-glutamine-amide] (Ac-YTKLVFQQ-NH2)

Row | Structure (SMILES) | IC50 [µM]
12 | CC[C@H](C)[C@H](NC(=O)[C@H](C)NC(=O)[C@@H](NC(=O)[C@H](CCc1ccccc1)NC(=O)[C@H](CCCCN)NC(=O)[C@@H](NC(=O)[C@@H](N)Cc1ccc(O)cc1)[C@@H](C)O)C(C)C)C(=O)N[C@@H](CCC(N)=O)C(N)=O [YTK--(homo-F)--VAIQ--NH2, Tyrosyl-threonyl-lysyl-(homo-phenylalanyl)-valyl-alanyl-isoleucyl-glutamine-amide] (HELM PEPTIDE1{Y.T.K.[O=C([C@H](CCc1ccccc1)N[*:1])[*:2]].V.A.I.Q.[am]}$$$$V2.0) | 52
